Experiments:
Test in all cases: inhibition of growth of cell lines (IC50 categories)
Assay type in all cases: cell-based
CWR22R = conditions: Homo sapiens, 22Rv1
Method: (§1) This example provides a table (below) of the compounds of the present disclosure and their activity towards four different cell lines (i.e., CWR22R, Hela, PC3, and MDA-MB-231). The IC50 for inhibition of growth is divided into 4 categories: A<1 μM, B 1-5 μM, […], D>20 μM.
(§2) All compounds were tested for toxicity using 4 cells lines, target cells-CWR22R and non-target cells, Hela, PC3 and MDA-MB-231 (FIGS. 1A-F).

Hela = conditions: Homo sapiens
Method: as §1, §2

MDA-MB-231 = conditions: Homo sapiens
Method: as §1, §2

PC3 = conditions: Homo sapiens, PC-3
Method: as §1, §2

Structure (SMILES) | IC50 (CWR22R) [µM] | IC50 (Hela) [µM] | IC50 (MDA-MB-231) [µM] | IC50 (PC3) [µM]
O=C1COc2c1ccc1c2c2ccccc2n1CCCF [Compound 1-7] | < 1 | > 20 | > 20 | > 20
Cn1c2ccccc2c2c3c(ccc21)C(=O)CC3 [Compound 1-3] | 5 to 20 | 5 to 20 | 5 to 20 | 5 to 20
CCCn1c2cccnc2c2c3c(ccc21)C(=O)CC3 [Compound 10-1, 6-Propyl-1,2-dihydro-6H-6,10-diazacyclopenta[c]fluoren-3-one] | 1 to 5 | > 20 | 5 to 20 | 5 to 20
CCCn1c2ccccc2c2c3c(ccc21)C(O)CC3 (centres unmarked) [Compound 7-1, 6-Propyl-1,2,3,6-tetrahydro-cyclopenta[c]carbazol-3-ol] | < 1 | 5 to 20 | 5 to 20 | 5 to 20
CCCn1c2ccccc2c2c3nc[nH]c(=O)c3ccc21 [Compound 5-1, 7-Propyl-3H-pyrimido[5,4-c]carbazol-4(7H)-one] | < 1 | > 20 | > 20 | 
N#Cc1cccc2c1c1c3cc[nH]c(=O)c3ccc1n2CCCF [Compound 8-3] | 1 to 5 | > 20 | > 20 | > 20
O=C1NCc2c1ccc1c2c2ncccc2n1CCCF [Compound 10-6, 6-(3-fluoropropyl)-1,2-dihydro-6H-2,6,10-triazacyclopenta[c]fluoren-3-one] | < 1 | > 20 | > 20 | > 20
CCCn1c2ccccc2c2c3c(ccc21)C(=O)NC3 [Compound 1-10, 6-propyl-1,2-dihydro-6H-pyrrolo[3,4-c]carbazol-3-one] | < 1 | > 20 | > 20 | > 20
O=c1[nH]ccc2c1ccc1c2c2ncccc2n1CCC(F)F [Compound 15-1, 7-(3,3-Difluoropropyl)-3,7-dihydro-3,7,11-triaza-benzo[c]fluoren-4-one] | > 20 | > 20 | > 20 | > 20
CCCn1c2ccccc2c2c3c(ccc21)CCC3 [Compound 7-2, 6-Propyl-1,2,3,6-tetrahydro-cyclopenta[c]carbazole] | 1 to 5 | > 20 | > 20 | > 20
O=C1NCCc2c1ccc1c2c2ncccc2n1CCCF [Compound 11-2] | < 1 | > 20 | > 20 | > 20
O=C1CCc2c1ccc1c2c2ncccc2n1CCCF [Compound 10-2] | < 1 | > 20 | 5 to 20 | 5 to 20
O=c1c2ccc3c(c2ccn1CCN1CCCC1)c1ccccc1n3CCCF [Compound 4-4] | 5 to 20 | 5 to 20 | 5 to 20 | 5 to 20
CCCn1c2ccccc2c2c3c(ccc21)CC(=O)N3C [Compound 6-1, 1-Methyl-6-propyl-3,6-dihydro-1H-pyrrolo[3,2-c]carbazol-2-one] | < 1 | > 20 | > 20 | > 20
CCCn1c2ccccc2c2c3c(ccc21)C(=O)CCC3 [Compound 1-4] | < 1 | > 20 | > 20 | > 20
CCCn1c2cccnc2c2c3c(ccc21)C(=O)NCC3 [Compound 11-1, 7-Propyl-1,2,3,7-tetrahydro-3,7,11-triazabenzo[c]fluoren-4-one] | 5 to 20 | > 20 | > 20 | > 20
CN1Cc2c(ccc3c2c2ncccc2n3CCCF)C1=O [Compound 14-1, 6-(3-Fluoropropyl)-2-methyl-1,2-dihydro-6H-2,6,10-triazacyclopenta[c]fluoren-3-one] | < 1 | > 20 | 5 to 20 | > 20
Cn1ncc2c(ccc3c2c2ncccc2n3CCCF)c1=O [Compound 10-7] | < 1 | > 20 | 5 to 20 | > 20
